Measured values published in ChEMBL document CHEMBL3352148, “Docking based virtual screening and molecular dynamics study to identify potential monoacylglycerol lipase inhibitors” (Bioorg Med Chem Lett, 2014).

Experiments:
[1] = Predicted human oral absorption (QikProp); conditions: in silico
[2] = Retention time of the compound by UPLC-MS/MS method; type: physicochemical
[3] = molecular target: T1, Monoglyceride lipase (Homo sapiens, UniProt Q99685); assay: Inhibition of human MAGL using 4-Nitrophenylacetate substrate incubated for 15 mins
T1 sequence (Q99685 whole entry): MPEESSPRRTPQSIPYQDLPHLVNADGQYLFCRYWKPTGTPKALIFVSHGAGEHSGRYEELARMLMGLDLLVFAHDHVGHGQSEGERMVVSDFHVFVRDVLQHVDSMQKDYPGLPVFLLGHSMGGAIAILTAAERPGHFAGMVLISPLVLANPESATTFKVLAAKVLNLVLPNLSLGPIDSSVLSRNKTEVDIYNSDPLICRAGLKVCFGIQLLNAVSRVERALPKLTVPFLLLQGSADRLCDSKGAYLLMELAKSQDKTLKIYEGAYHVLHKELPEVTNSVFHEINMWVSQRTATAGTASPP

Compound	Fa [1] [%]	Retention_time [2] [min]	IC50 [3] [µM]
C[C@H]1CCCC[C@@H]1NC(=O)CC[C@@H]1NC(=O)N(CCc2c[nH]c3ccc(F)cc23)C1=O	90.7	2.26	> 100
O=C(Cn1nnc2ccccc21)Nc1ccc(-c2nc3ccccc3s2)cc1	100	1.72	–
O=C(COc1ccc2ccccc2c1)Nn1ccc2c(nnc3c(-c4ccc(F)cc4)cnn32)c1=O	100	1.29	> 100
COc1ccc2cc(-c3nc4sc(C(=O)Nc5ccccc5OC)cc4c(=O)[nH]3)c(=O)oc2c1	80.4	–	–
COc1nn(-c2ccc(NC(=O)OCc3ccccc3)c(C)c2)c(=O)o1	–	–	0.02

Results, then the compound that gave them:

Fa [1] [%]	Retention_time [2] [min]	IC50 [3] [µM]	Compound
100	–	–	O=C(NCc1ccc2c(c1)OCO2)[C@H]1CC(=O)N(c2ccc(OCc3ccccc3Cl)cc2)C1
77.9	1.68	–	Cc1ccc(N2C[C@H](C(=O)NCc3n[nH]c(=O)c4ccccc34)CC2=O)cc1C
100	1.55	–	Cc1cc(C)cc(NC(=O)[C@@H]2CC(=O)N(CCc3c[nH]c4ccc(F)cc34)C2)c1
–	2.01	–	O=C(NCc1ccc2c(c1)OCO2)[C@@H]1CC(=O)N(c2ccc(OCc3ccccc3Cl)cc2)C1
